Where “and” joins values, the source holds several entries; their conditions need not be identical. Equal values may be shown once. Toxic doses and inconclusive results are not listed.
Tested on: L1210 leukemia ip in BDF1 mice, survival T/C
Assay: NCI In Vivo Anticancer Drug Screen. Data for tumor model L1210 Leukemia (intraperitoneal) in B6D2F1 (BDF1) mice
Details: endpoint: mean survival time, higher = longer survival
In short: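 Antitumor effect is assessed in tumor-bearing animals. Survival in the compound arm is compared with a vehicle-dosed control arm and expressed as their quotient.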

[1] = dose: 100.0 mg/kg/injection, schedule: Q04DX003 (ip), vehicle: Klucel (hydroxypropylcellulose) (HPC)
[2] = dose: 200.0 mg/kg/injection, schedule: Q04DX003 (ip), vehicle: Klucel (hydroxypropylcellulose) (HPC)
[3] = dose: 400.0 mg/kg/injection, schedule: Q04DX003 (ip), vehicle: Klucel (hydroxypropylcellulose) (HPC)
[4] = dose: 100.0 mg/kg/injection, schedule: Q01DX009 (ip), vehicle: Klucel (hydroxypropylcellulose) (HPC)
[5] = dose: 200.0 mg/kg/injection, schedule: Q01DX009 (ip), vehicle: Klucel (hydroxypropylcellulose) (HPC)
[6] = dose: 400.0 mg/kg/injection, schedule: Q01DX009 (ip), vehicle: Klucel (hydroxypropylcellulose) (HPC)
[7] = dose: 50.0 mg/kg/injection, schedule: Q01DX001 (ip), vehicle: saline
[8] = dose: 100.0 mg/kg/injection, schedule: Q01DX001 (ip), vehicle: saline
[9] = dose: 200.0 mg/kg/injection, schedule: Q01DX001 (ip), vehicle: saline
[10] = dose: 400.0 mg/kg/injection, schedule: Q01DX001 (ip), vehicle: saline
[11] = dose: 100.0 mg/kg/injection, schedule: Q04DX003 (ip), vehicle: saline with Tween-80
[12] = dose: 200.0 mg/kg/injection, schedule: Q04DX003 (ip), vehicle: saline with Tween-80
[13] = dose: 50.0 mg/kg/injection, schedule: Q01DX009 (ip), vehicle: saline with Tween-80
[14] = dose: 100.0 mg/kg/injection, schedule: Q01DX009 (ip), vehicle: saline with Tween-80
[15] = dose: 200.0 mg/kg/injection, schedule: Q01DX009 (ip), vehicle: saline with Tween-80
[16] = dose: 400.0 mg/kg/injection, schedule: Q01DX009 (ip), vehicle: saline with Tween-80

Compound: OC1CC2c3ccccc3C1c1cccc[n+]12 (stereo not given)
- T/C (dose: 12.5 mg/kg/injection, schedule: Q01DX009 (ip), vehicle: Klucel (hydroxypropylcellulose) (HPC)): 98 % of control
- T/C (dose: 12.5 mg/kg/injection, schedule: Q04DX003 (ip), vehicle: Klucel (hydroxypropylcellulose) (HPC)): 94 % of control and 97 % of control
- T/C (dose: 12.5 mg/kg/injection, schedule: Q04DX003 (ip), vehicle: saline): 100 % of control
- T/C (dose: 25.0 mg/kg/injection, schedule: Q01DX009 (ip), vehicle: Klucel (hydroxypropylcellulose) (HPC)): 96 % of control
- T/C (dose: 25.0 mg/kg/injection, schedule: Q04DX003 (ip), vehicle: Klucel (hydroxypropylcellulose) (HPC)): 103 % of control and 95 % of control
- T/C (dose: 25.0 mg/kg/injection, schedule: Q04DX003 (ip), vehicle: saline): 103 % of control
- T/C (dose: 50.0 mg/kg/injection, schedule: Q01DX009 (ip), vehicle: Klucel (hydroxypropylcellulose) (HPC)): 94 % of control
- T/C (dose: 50.0 mg/kg/injection, schedule: Q04DX003 (ip), vehicle: Klucel (hydroxypropylcellulose) (HPC)): 94 % of control and 95 % of control
- T/C (dose: 50.0 mg/kg/injection, schedule: Q04DX003 (ip), vehicle: saline): 97 % of control
- T/C (dose: 100.0 mg/kg/injection, schedule: Q04DX003 (ip), vehicle: saline): 102 % of control

Compound: CCCCNC(=O)Nc1ccc(C(=O)O)c(O)c1
- T/C [1]: 100 % of control
- T/C [2]: 94 % of control
- T/C [3]: 93 % of control

Compound: CCOc1ccccc1NC(=O)Nc1ccc(Cl)cc1
- T/C [4]: 97 % of control
- T/C [1]: 100 % of control
- T/C [5]: 103 % of control
- T/C [2]: 96 % of control
- T/C [6]: 101 % of control
- T/C [3]: 100 % of control

Compound: c1cc[n+]2c(c1)CC[n+]1ccccc1CC2
- T/C (dose: 50.0 mg/kg/injection, schedule: Q01DX001 (ip), vehicle: carboxymethylcellulose (CMC)): 106 % of control
- T/C (dose: 100.0 mg/kg/injection, schedule: Q01DX001 (ip), vehicle: carboxymethylcellulose (CMC)): 100 % of control
- T/C (dose: 200.0 mg/kg/injection, schedule: Q01DX001 (ip), vehicle: carboxymethylcellulose (CMC)): 122 % of control
- T/C (dose: 400.0 mg/kg/injection, schedule: Q01DX001 (ip), vehicle: carboxymethylcellulose (CMC)): 106 % of control

Compound: COc1ccc(NP2(=O)OCC(C)([N+](=O)[O-])CO2)cc1 (stereo not given)
- T/C [7]: 98 % of control
- T/C [8]: 102 % of control
- T/C [9]: 98 % of control
- T/C [10]: 96 % of control

Compound: CSC(SC)C(O)C(O)C(O)C(O)CO (stereo not given)
- T/C (dose: 50.0 mg/kg/injection, schedule: Q04DX002 (ip), vehicle: saline): 103 % of control
- T/C (dose: 100.0 mg/kg/injection, schedule: Q04DX002 (ip), vehicle: saline): 113 % of control
- T/C (dose: 200.0 mg/kg/injection, schedule: Q04DX002 (ip), vehicle: saline): 92 % of control

Compound: CN1NCc2cncnc21
- T/C [7]: 97 % of control
- T/C [8]: 103 % of control
- T/C [9]: 101 % of control
- T/C [10]: 103 % of control

Compound: N/N=C1/CCN2CCCc3cccc1c32
- T/C [11]: 101 % of control
- T/C [12]: 96 % of control

Compound: CC(C)/C=N\NC(=O)c1ccc[n+](C)c1
- T/C [13]: 100 % of control
- T/C [14]: 92 % of control

Compound: CCCc1ccc(C(=O)O)cc1
- T/C [4]: 95 % of control
- T/C [5]: 91 % of control
- T/C [6]: 98 % of control

Compound: CCOC(=O)C12CC=CC(CCC1)C2=O (stereo not given) (tested in a mixture with another compound)
- T/C [14]: 112 % of control
- T/C [11]: 103 % of control
- T/C [15]: 101 % of control
- T/C [12]: 102 % of control
- T/C [16]: 101 % of control
- T/C (dose: 400.0 mg/kg/injection, schedule: Q04DX003 (ip), vehicle: saline with Tween-80): 105 % of control

Compound: COc1ccc(OCCOC(=O)Nc2cccc(C(F)(F)F)c2)cc1
- T/C [14]: 109 % of control
- T/C [15]: 96 % of control
- T/C [16]: 91 % of control

Compound: COc1ccc(Cl)cc1NC(=O)Oc1ccc(Br)cc1Br
- T/C [14]: 94 % of control
- T/C [15]: 104 % of control
- T/C [16]: 99 % of control

Compound: Oc1ccc(C(=S)N2CCOCC2)cc1
- T/C [1]: 97 % of control
- T/C [2]: 97 % of control
- T/C [3]: 98 % of control

Compound: OCC1OC(n2cnc3c(SCc4ccccc4)ncnc32)C(O)C1O (stereo not given)
- T/C (dose: 38.5 mg/kg/injection, schedule: Q01DX009 (ip), vehicle: saline): 102 % of control
- T/C (dose: 58.0 mg/kg/injection, schedule: Q01DX009 (ip), vehicle: carboxymethylcellulose (CMC)): 111 % of control
- T/C (dose: 58.0 mg/kg/injection, schedule: Q01DX009 (ip), vehicle: saline): 124 % of control
- T/C (dose: 88.0 mg/kg/injection, schedule: Q01DX009 (ip), vehicle: carboxymethylcellulose (CMC)): 124 % of control
- T/C (dose: 88.0 mg/kg/injection, schedule: Q01DX009 (ip), vehicle: saline): 152 % of control
- T/C (dose: 132.0 mg/kg/injection, schedule: Q01DX009 (ip), vehicle: carboxymethylcellulose (CMC)): 113 % of control
- T/C (dose: 132.0 mg/kg/injection, schedule: Q01DX009 (ip), vehicle: saline): 152 % of control
- T/C (dose: 200.0 mg/kg/injection, schedule: Q01DX009 (ip), vehicle: carboxymethylcellulose (CMC)): 105 % of control

Compound: COc1cc(OC)c(NC(=O)Nc2cccc(Cl)c2C)cc1Cl
- T/C (dose: 12.5 mg/kg/injection, schedule: Q01DX009 (ip), vehicle: saline with Tween-80): 97 % of control and 92 % of control
- T/C (dose: 25.0 mg/kg/injection, schedule: Q01DX009 (ip), vehicle: saline with Tween-80): 94 % of control and 95 % of control
- T/C (dose: 25.0 mg/kg/injection, schedule: Q04DX003 (ip), vehicle: saline with Tween-80): 89 % of control
- T/C [13]: 95 % of control and 87 % of control
- T/C (dose: 50.0 mg/kg/injection, schedule: Q04DX003 (ip), vehicle: saline with Tween-80): 97 % of control
- T/C (dose: 100.0 mg/kg/injection, schedule: Q04DX002 (ip), vehicle: saline with Tween-80): 86 % of control and 91 % of control
- T/C [11]: 92 % of control
- T/C [15]: 89 % of control and 91 % of control
- T/C (dose: 200.0 mg/kg/injection, schedule: Q04DX002 (ip), vehicle: saline with Tween-80): 87 % of control and 90 % of control
- T/C [16]: 96 % of control and 91 % of control
- T/C (dose: 400.0 mg/kg/injection, schedule: Q04DX002 (ip), vehicle: saline with Tween-80): 104 % of control and 91 % of control

From PubChem BioAssay AID248 (DTP/NCI, 2004)
